ChEMBL document CHEMBL1144770, “Synthesis, SAR and in vitro evaluation of new cyclic Arg-Gly-Asp pseudopentapeptides containing a s-cis peptide bond as integrin alphavbeta3 and alphavbeta5 ligands” (Bioorg Med Chem, 2008)
pIC50: −log10 of the molar value.

Experiments:
Integrin alpha-V/beta-5 = Integrin alpha-V/beta-5 (Homo sapiens, UniProt P06756+P18084); test: Displacement of [125I]Echistatin from human placental integrin alpha-V-beta-5 receptor
Integrin alpha-V/beta-3 = Integrin alpha-V/beta-3 (Homo sapiens, UniProt P05106+P06756); test: Displacement of [125I]echistatin from human placental integrin alphaVbeta3 receptor
Chain of Integrin alpha-V/beta-3 (P05106 27-788 limits assumed): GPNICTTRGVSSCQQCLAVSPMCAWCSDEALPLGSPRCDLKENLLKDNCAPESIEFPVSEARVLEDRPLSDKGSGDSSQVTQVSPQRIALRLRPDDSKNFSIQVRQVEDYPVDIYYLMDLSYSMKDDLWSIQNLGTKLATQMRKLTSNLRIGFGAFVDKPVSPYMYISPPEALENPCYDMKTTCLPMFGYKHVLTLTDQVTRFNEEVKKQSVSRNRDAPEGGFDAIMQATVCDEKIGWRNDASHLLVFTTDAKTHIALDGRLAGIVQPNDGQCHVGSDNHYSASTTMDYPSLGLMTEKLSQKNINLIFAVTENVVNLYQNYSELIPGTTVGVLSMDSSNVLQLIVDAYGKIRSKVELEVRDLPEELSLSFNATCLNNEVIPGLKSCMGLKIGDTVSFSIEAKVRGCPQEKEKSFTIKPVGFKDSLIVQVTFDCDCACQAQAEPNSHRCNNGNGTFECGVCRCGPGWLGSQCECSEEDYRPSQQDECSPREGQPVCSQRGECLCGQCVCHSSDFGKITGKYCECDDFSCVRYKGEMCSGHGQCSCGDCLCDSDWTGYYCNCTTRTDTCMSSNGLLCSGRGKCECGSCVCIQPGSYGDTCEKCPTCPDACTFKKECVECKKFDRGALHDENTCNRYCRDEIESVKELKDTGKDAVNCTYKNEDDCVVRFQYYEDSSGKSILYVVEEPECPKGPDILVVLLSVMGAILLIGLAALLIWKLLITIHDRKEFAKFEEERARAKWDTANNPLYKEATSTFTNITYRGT
Chain of Integrin alpha-V/beta-3 (P06756 31-889 limits assumed): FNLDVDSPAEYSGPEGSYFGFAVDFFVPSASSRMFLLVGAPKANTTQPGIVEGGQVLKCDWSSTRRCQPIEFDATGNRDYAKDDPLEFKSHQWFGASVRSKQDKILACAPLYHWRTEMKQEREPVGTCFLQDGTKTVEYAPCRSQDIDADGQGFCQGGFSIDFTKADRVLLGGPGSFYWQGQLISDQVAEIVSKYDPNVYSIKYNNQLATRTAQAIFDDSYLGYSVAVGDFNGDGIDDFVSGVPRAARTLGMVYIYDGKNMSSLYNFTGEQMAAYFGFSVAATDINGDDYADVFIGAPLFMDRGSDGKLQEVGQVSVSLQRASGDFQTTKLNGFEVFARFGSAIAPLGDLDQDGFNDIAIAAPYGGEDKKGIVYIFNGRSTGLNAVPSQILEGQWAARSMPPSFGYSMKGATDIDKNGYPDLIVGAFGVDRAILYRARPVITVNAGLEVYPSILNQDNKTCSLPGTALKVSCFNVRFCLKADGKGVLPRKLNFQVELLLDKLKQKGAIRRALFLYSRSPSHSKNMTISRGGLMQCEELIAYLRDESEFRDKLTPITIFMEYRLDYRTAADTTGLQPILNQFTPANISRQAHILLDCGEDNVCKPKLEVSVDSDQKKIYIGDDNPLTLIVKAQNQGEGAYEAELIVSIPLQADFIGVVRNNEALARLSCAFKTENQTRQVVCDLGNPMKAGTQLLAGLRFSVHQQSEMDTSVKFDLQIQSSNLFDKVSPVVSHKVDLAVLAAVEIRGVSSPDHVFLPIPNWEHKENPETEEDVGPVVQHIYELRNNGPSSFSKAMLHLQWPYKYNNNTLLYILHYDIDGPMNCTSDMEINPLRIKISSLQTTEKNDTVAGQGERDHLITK
Chain of Integrin alpha-V/beta-3 (P06756 891-1048 limits assumed): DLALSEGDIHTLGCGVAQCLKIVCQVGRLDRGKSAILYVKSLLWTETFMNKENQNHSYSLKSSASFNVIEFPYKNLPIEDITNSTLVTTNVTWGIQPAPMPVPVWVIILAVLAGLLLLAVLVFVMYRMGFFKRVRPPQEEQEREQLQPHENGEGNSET

Chain of Integrin alpha-V/beta-5 (P06756 31-889 limits assumed): as the sequence (P06756 31-889 limits assumed) above
Chain of Integrin alpha-V/beta-5 (P06756 891-1048 limits assumed): as the sequence (P06756 891-1048 limits assumed) above
Chain of Integrin alpha-V/beta-5 (P18084 24-799 limits assumed): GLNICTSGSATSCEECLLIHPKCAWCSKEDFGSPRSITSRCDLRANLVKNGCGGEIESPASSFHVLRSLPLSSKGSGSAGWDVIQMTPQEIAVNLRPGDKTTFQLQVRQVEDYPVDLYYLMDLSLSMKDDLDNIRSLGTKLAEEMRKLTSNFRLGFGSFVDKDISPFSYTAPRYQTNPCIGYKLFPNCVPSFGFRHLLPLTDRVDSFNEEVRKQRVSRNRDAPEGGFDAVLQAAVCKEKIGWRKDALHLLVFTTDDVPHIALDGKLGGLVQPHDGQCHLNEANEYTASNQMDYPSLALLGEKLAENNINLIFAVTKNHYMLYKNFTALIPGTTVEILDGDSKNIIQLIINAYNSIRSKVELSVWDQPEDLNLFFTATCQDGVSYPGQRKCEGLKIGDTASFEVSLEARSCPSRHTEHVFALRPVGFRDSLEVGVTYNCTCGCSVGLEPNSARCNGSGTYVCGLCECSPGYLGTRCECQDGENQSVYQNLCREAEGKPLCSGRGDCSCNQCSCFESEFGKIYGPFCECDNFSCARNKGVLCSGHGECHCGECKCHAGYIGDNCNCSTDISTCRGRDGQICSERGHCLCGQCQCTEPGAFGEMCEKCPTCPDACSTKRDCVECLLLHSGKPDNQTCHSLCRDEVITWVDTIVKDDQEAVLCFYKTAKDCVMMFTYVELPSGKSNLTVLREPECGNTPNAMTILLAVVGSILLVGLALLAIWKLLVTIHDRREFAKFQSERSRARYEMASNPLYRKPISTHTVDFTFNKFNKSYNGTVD

pIC50 (Integrin alpha-V/beta-5) | pIC50 (Integrin alpha-V/beta-3) | SMILES
5.10 | 5.67 | NC(N)=NCCC[C@@H]1NC(=O)[C@]23CCCN2C(=O)[C@@H](C3)NC(=O)[C@H](CC(=O)O)NC(=O)CNC1=O
7.84 | 7.46 | N=C(N)NCCC[C@@H]1NC(=O)[C@@]23CCCN2C(=O)[C@H](C3)NC(=O)[C@H](CC(=O)O)NC(=O)CNC1=O
